Data as given in patent publication US10383837B2, “Compositions and methods for modulating metabolic pathways” (NuSirt Sciences, Inc., priority 2011, dated 2019).
Marks after values point to notes of the source that are not given here.

What was measured:
[1] = test system: adipocytes (3T3-L1) and myotubes (C2C12); test: Fatty acid oxidation screening: dose-response curves and synergy, cell type not separately stated; type: cell-based; details: for concentration that exerts no effect in dose-response curves (sub-therapeutic dose used in synergy experiments): fatty acid oxidation dose-response
myotubes (C2C12) = test: Fatty acid oxidation, palmitate-induced O2 consumption (Seahorse XF24), myotubes; type: cell-based; details: 24 hours treatment, leucine 0.5 mM, HMB 5 μM, resveratrol 200 nM, partner at its no-effect concentration, % change from control
c2c12 myotubes [2] = test: Glucose utilization, extracellular acidification response to glucose, myotubes; type: cell-based; details: leucine 0.5 mM, HMB 5 μM, resveratrol 200 nM, partner at its no-effect concentration
Experimental: All compounds were tested for potential to independently or synergistically modulate sirtuin signaling either by direct stimulation or indirect via upstream signaling via AMPK. A key outcome of Sirt1 signaling is stimulation of PGC1-α and subsequent stimulation of mitochondrial biogenesis and fatty acid oxidation. Accordingly, fatty acid oxidation, measured as palmitate-induced oxygen consumption as described below, was utilized as a sensitive first level of screening for aerobic mitochondrial metabolism. A dose-response curve for fatty acid oxidation was established for each compound studied, and a “sub-therapeutic dose” was defined as the highest dose that exerted no effect in this system. […] Following assessment of fatty acid oxidation, Sirt1 activity, AMPK activity, mitochondrial biogenesis and glucose utilization (measured as glucose-induced extracellular acidification in the absence of fatty acids in the media) were assessed for lead combinations and appropriate controls. In the absence of a fatty acid source and oxidative metabolism, glycolysis and subsequent lactate production results in extracellular acidification, which was also measured using a Seahorse Bioscience XF24 analyzer. […] Data for each sample were normalized to the pre-glucose injection baseline for that sample and expressed as % change from that baseline. […]

myotube = test: Myotube mitochondrial biogenesis, fluorometric NAO binding, Example 1; type: cell-based; details: myotubes
Experimental: (§1) We next investigated the role of intact leucine (0-0.5 mM) vs. its metabolites, α-ketoisocaproic acid (KIC) (0-0.5 mM) and HMB (0-50 μM). […] Both leucine and HMB increased myotube mitochondrial biogenesis (assessed fluorometrically via NAO binding) by ˜50%, (p<0.005, FIG. 3).

[3] = test system: PGC-1α, NRF-1, UCP3 genes; test: Expression of mitochondrial regulatory and component genes; type: cell-based
Sirt3 = molecular target: T1, Sirt3 (Mus musculus, UniProt Q8R104); test: Sirt3 activity in mitochondrial protein of treated 3T3-L1 adipocytes; type: cell-based; details: leucine 0.5 mM, HMB 5 μM, resveratrol 200 nM; summary in Example 5
T1 construct: endogenous in cells; host or cells: 3T3-L1 adipocytes (mitochondrial protein)
T1 sequence (Q8R104 1-334): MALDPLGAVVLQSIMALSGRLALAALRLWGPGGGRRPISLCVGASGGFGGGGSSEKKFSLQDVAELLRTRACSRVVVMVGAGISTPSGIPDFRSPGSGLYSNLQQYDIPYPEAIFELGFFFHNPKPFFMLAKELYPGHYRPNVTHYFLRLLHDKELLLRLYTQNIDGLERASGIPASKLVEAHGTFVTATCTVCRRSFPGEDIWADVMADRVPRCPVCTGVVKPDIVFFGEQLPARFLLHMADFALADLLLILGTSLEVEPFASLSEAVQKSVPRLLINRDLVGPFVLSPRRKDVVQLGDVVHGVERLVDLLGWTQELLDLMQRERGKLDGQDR

Adipocytes (3T3-L1) = test: Fatty acid oxidation by 3H-palmitate in 3T3-L1 adipocytes; type: cell-based; details: 4 hours, resveratrol 200 nM, HMB 5 uM, leucine 0.5 mM; for increase in fatty acid oxidation, low glucose: low (5 mM) glucose
Experimental: High glucose medium reduced fatty acid oxidation by 46% (p<0.05).
Fatty acid oxidation was measured using ^3H-labeled palmitate oxidation, with the ^3H label trapped as water as a result of the fat oxidation. The ^3H was then measured via scintillation counter.

[4] = Body weight, weight gain and visceral adipose volume in diet-induced obese mice; type: in vivo, c57/BL6 mice; details: 6 weeks on diet, low resveratrol 12.5 mg/kg diet, low HMB 2 g CaHMB/kg diet, high HMB 10 g CaHMB/kg diet, leucine 2.42% of diet
Excerpt: (§2) Six week old male c57/BL6 mice were fed a high-fat diet with fat increased to 45% of energy (Research Diets D12451) for 6 weeks to induce obesity.
At the of the treatment period (6 weeks) all animals were humanely euthanized, and blood and tissues collected for further experiments.

[5] = Indices of insulin sensitivity (plasma glucose, insulin, HOMAIR) in diet-induced obese mice; type: in vivo, c57/BL6 mice; details: 6 weeks on diet, low resveratrol 12.5 mg/kg diet, low HMB 2 g CaHMB/kg diet, high HMB 10 g CaHMB/kg diet, leucine 2.42% of diet
Excerpt: Insulin sensitivity can be measured using a variety of techniques, including HOMAIR. HOMAIR, which is the homeostasis model assessment of insulin resistance can be used as a screening index of changes in insulin sensitivity. HOMAIR can be calculated via standard formula from fasting plasma insulin and glucose as follows: HOMAIR=[Insulin (uU/mL)×glucose (mM)]/22.5.
as §2

[6] = test system: C-reactive protein, IL-6, MCP-1, adiponectin; test: Circulating inflammatory biomarkers in diet-induced obese mice; type: in vivo, c57/BL6 mice; details: 6 weeks on diet, low resveratrol 12.5 mg/kg diet, low HMB 2 g CaHMB/kg diet, high HMB 10 g CaHMB/kg diet, leucine 2.42% of diet
SIRT1 = molecular target: T2, SIRT1 (Mus musculus, UniProt Q923E4); test: Adipose tissue Sirt1 activity in diet-induced obese mice; type: in vivo, c57/BL6 mice; set-up: from tissue; host or cells: adipose tissue of diet-induced obese c57/BL6 mice; details: 6 weeks, low dose of resveratrol, HMB, leucine diets
T2 sequence (Q923E4 1-737): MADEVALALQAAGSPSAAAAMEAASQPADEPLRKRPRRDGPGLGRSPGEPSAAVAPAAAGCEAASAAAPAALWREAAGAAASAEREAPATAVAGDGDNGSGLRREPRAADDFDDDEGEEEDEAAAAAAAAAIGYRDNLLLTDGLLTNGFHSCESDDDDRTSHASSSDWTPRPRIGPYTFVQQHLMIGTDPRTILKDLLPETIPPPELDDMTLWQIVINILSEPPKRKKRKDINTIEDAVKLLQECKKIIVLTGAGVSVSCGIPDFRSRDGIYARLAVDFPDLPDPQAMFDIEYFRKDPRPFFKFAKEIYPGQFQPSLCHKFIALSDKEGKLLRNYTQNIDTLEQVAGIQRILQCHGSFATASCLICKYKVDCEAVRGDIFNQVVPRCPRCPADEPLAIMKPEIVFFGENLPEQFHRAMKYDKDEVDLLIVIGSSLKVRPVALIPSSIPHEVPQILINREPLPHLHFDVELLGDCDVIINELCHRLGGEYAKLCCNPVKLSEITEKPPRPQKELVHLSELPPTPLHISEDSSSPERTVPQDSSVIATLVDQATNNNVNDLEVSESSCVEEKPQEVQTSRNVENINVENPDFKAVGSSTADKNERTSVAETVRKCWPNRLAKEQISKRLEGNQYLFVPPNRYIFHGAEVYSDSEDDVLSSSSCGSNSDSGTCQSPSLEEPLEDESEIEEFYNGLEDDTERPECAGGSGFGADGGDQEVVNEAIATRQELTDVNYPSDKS

c2c12 myotubes [7] = test: Fatty acid oxidation (FAO) in c2c12 myotubes, Example 1; type: cell-based; details: in the presence and absence of 20 nM rapamycin
Experimental: We have shown that catabolic systems are also stimulated to fuel this process, resulting in increased mitochondrial biogenesis and fatty acid oxidation (FAO). To address the mechanism of this effect, we first determined its mTOR-dependence by assessing leucine stimulation of FAO in the presence and absence of 20 nM rapamycin; although rapamycin inhibited FAO in c2c12 myotubes, the degree of leucine stimulation was preserved (˜50%, p<0.03; FIG. 1).
as §1

[8] = Plasma insulin, glucose and HOMAIR in diabetic db/db mice; type: in vivo; details: 2 weeks, low dose (150 mg/kg) and very low dose (50 mg/kg) of metformin
[9] = db/db mice, day 7, insulin 0.75 U/kg i.p.; standard metformin dose or blends
[10] = db/db mice, 2 weeks

For `O=C(O)/C=C/c1ccc(O)c(O)c1` [Caffeic acid, caffeic acid], the “concentration that exerts no effect in dose-response curves (sub-therapeutic dose used in synergy experiments)” value (from here on “concentration that exerts no effect”) [1] was no more than 1000 nM.

With `Cn1c(=O)c2c(ncn2C)n(C)c1=O` [Caffeine, caffeine, reference compound] the “increase in myotube fatty acid oxidation” value (myotubes (C2C12)) was “neither component exerted an independent effect”.

For `O=C(O[C@@H]1Cc2c(O)cc(O)cc2O[C@@H]1c1cc(O)c(O)c(O)c1)c1cc(O)c(O)c(O)c1` [EGCG, epigallocatechin gallate], the “increase in glucose utilization, myotubes” value (c2c12 myotubes [2]) was “no independent effect” and the “independent activity in dose-response curves / direct stimulation of fatty acid oxidation” value [1] was “minimally active”.

With `O=c1oc2c(O)c(O)cc3c(=O)oc4c(O)c(O)cc1c4c23` [Ellagic acid, ellagic acid] the “independent activity in dose-response curves / direct stimulation of fatty acid oxidation” value [1] was “little activity, even at high concentrations”.

For `CC(C)(O)CC(=O)O` [HMB, beta-hydroxymethylbutyrate], the “increase in myotube mitochondrial biogenesis (NAO binding)” value (myotube) was roughly 50%, the “expression of mitochondrial regulatory (PGC-1α and NRF-1) and component (UCP3) genes” value [3] was “stimulated expression” and the “stimulation of Sirt3” value (Sirt3) was “no independent effects”. The “increase in fatty acid oxidation, high glucose” value (Adipocytes (3T3-L1); high (25 mM) glucose, vs. control) was 29%, the “increase in fatty acid oxidation, low glucose” value (Adipocytes (3T3-L1)) was “no independent effect” and the “Visceral Adipose Volume” value [4] was 6184 ± 460^a mm^3. For the same molecule, the Weight [4] was 40.3 ± 2.1^a g, the Weight gain [4] was 22.5 ± 1.2 g and the “Glucose (plasma)” value [5] was 4.28 ± 0.49^a mM. The “Insulin (plasma)” value [5] was 8.3 ± 1.1^a μU/mL, the Adiponectin [6] was 11.1 ± 1.6^a ng/mL and the C-reactive protein [6] was 98.6 ± 5.1^a ng/mL. The IL-6 [6] was 19.9 ± 3.1^a pg/mL, the MCP-1 [6] was 116.8 ± 9.3^a pg/mL and the “adipose tissue Sirt1 activity” value (SIRT1) was “Neither resveratrol nor HMB exerted significant independent effects”.

For `OC[C@@H](O)[C@@H](O[C@H]1O[C@H](CO)[C@@H](O)[C@H](O)[C@H]1O)[C@H](O)[C@@H](O)CO` [Maltitol, maltitol], the “concentration that exerts no effect” value [1] was no more than 100 nM and the “synergy with HMB or leucine in stimulating fatty acid oxidation” value ([1]; leucine 0.5 mM, HMB 5 μM) was “no synergy was noted”.

For `Cn1c(=O)c2[nH]cnc2n(C)c1=O` [Theophylline, theophylline, reference compound], the “concentration that exerts no effect” value [1] was “below 1 μM”.

In the case of `CC(C)C[C@H](N)C(=O)O` [leucine], the “degree of leucine stimulation of FAO” value (c2c12 myotubes [7]) was roughly 50%, the “increase in myotube mitochondrial biogenesis (NAO binding)” value (myotube) was roughly 50% and the “expression of mitochondrial regulatory (PGC-1α and NRF-1) and component (UCP3) genes” value [3] was “stimulated expression”. The “stimulation of Sirt3” value (Sirt3) was “no independent effects” and the “increase in fatty acid oxidation, low glucose” value (Adipocytes (3T3-L1)) was “no independent effect”.

In the case of `CN(C)C(=N)N=C(N)N` [metformin], the “independent effects on any variable studied” value [8] was “no significant independent effects”, the “decrease in blood glucose over the 30 minute linear portion of the insulin tolerance test response curve” value [9] was roughly 60 mg/dL and the visceral fat mass ([10]; control 4.5 g) was “not affected”. For the same molecule, the “effect on body composition” value ([10]; high dose metformin 300 mg/kg bw) was “no significant effects”.

In the case of fucoxanthin, the “concentration that exerts no effect” value [1] was no more than 100 nM.
